Reference: patent US20120295982A1, “TREATING HUMAN MALE COPD PATIENTS WITH ORAL BEDORADRINE” (MediciNova, Inc., priority 2011, published 2012)
Structures can show the parent of a compound that is named as a salt.

Key:
[1] = Oral bioavailability in rabbits; conditions: rabbit, in vivo, read-out: Oral F %
[2] = Oral bioavailability in rats; assay type: in vivo
[3] = system: patients with acute exacerbations of asthma (AEA); assay: Placebo-controlled dose-escalating test of i.v. MN-221 plus standard of care in acute exacerbations of asthma (emergency department); assay type: in vivo, human
Experimental: This example provides certain preferred oral dosages for treating male COPD patients according to this invention. Initially, the efficacy and safety of administering intravenous MN-221 in combination with standard of care (SOC) for treating acute exacerbations of asthma (AEA) in an emergency department (ED) setting is determined. The testing was performed in a randomized, placebo-controlled, dose-escalating, setting. Twenty nine patients received SOC (nebulized albuterol and ipratropium plus oral corticosteroid). Patients with FEV1≦55% of predicted were randomized to MN-221 (240 or 450 μg infused over 15 min or 1080 μg over 2 hr) or Placebo. MN-221 was administered as follows: 16 μg/min for 15 min (total dose of 240 μg); 30 μg/min for 15 min (total dose of 450 μg); 16 μg/min for 15 min+8 μg/min for 105 min (total dose of 1,080 μg); and 2 patients received total dose of 1,995 μg. Safety, efficacy and PK parameters were monitored hourly throughout a 5 hr treatment period and a 24 hr follow-up visit. Nebulized albuterol (2.5 mg) and/or ipratropium (0.5 mg) was available hourly during screening and treatment phases. Efficacy endpoints included spirometry, dyspnea indexing, albuterol use, and hospitalization rates. The testing was completed with 13 patients (n=13) in SOC+Placebo and 16 patients (n=16) receiving SOC+MN-221; 5 at 240 μg, 6 at 450 μg, and 5 intended for a 1080 μg dose. Patients received Standard of Care (SOC) treatment in addition to adjunctive treatment with MN-221 or placebo. MN-221 was well-tolerated.

bioavailability [1]: ≤ 3%
bioavailability ([2]; rat, in vivo, po, rats, read-out: Oral F %): ≤ 3%
SMILES: CN(C)C(=O)COc1ccc2c(c1)C[C@@H](NC[C@H](O)c1ccc(O)c(CCO)c1)CC2 [MN-221, bedoradrine sulfate]
gender difference of oral bioavailability ([2]; orally administered, female vs male rats): greater bioavailability in female rats compared to male rats
heart rate relative to Placebo ([3]; all MN-221 group): minimally elevated
hospitalization rate ([3]; all MN-221 group (4/16), i.v. plus SOC): 25%
FEV1 (% predicted), change from baseline in AUC1-5 hr, higher vs. Placebo ([3]; all MN-221 group vs. Placebo): 43%
tolerability ([3]; i.v. MN-221 240-1080 μg plus standard of care, AEA patients): well-tolerated
electrocardiograph (ECG) findings ([3]; i.v. MN-221 plus SOC): No abnormal electrocardiograph (ECG) findings were observed
intensity of the majority of adverse events ([3]; i.v. MN-221 plus SOC): mild to moderate in intensity
